This is an account of results in PubChem BioAssay (NCI).

Among the test systems are ACHN renal; HCC-2998 colon; HCT-116 colon; HCT-15 colon; LOX IMVI melanoma; OVCAR-8 ovarian; SF-539 CNS; SK-OV-3 ovarian; SW-620 colon; UACC-62 melanoma.
Test in all cases: NCI anticancer screen, dose series, 48 h

Molecules are shown by their SMILES.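 Cultured in 96-well plates, cells were exposed to test compound for 48 hours across five concentrations. Here, GI50 denotes the concentration required for 50% inhibition of growth. TGI marks complete inhibition of growth.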

As to `COc1cc2nc(NC3CCC3)nc(NC3CCN(C(C)C)CC3)c2cc1OC`, the GI50 in the assay with ACHN renal is 2.7 µM; in the assay on HCC-2998 colon, 1.7 µM; in the assay with HCT-116 colon it was 1.78 µM; with HCT-15 colon, 2.16 µM; in the assay on LOX IMVI melanoma it was 1.72 µM; with OVCAR-8 ovarian, 3.97 µM. Moreover, the GI50 in the assay on SF-539 CNS was 1.81 µM; in the assay with SK-OV-3 ovarian it was 8 µM; in the assay with SW-620 colon it was 2.49 µM; in the assay on UACC-62 melanoma, 1.79 µM. Further, the TGI in the assay with ACHN renal stood at 7.4 µM; in the assay on HCC-2998 colon, 3.46 µM; with HCT-116 colon, 4.39 µM; with HCT-15 colon, 5.15 µM; in the assay with LOX IMVI melanoma, 3.23 µM; in the assay with OVCAR-8 ovarian it was 26.2 µM. For the same compound, the TGI is 3.36 µM in the assay with SF-539 CNS, 33.7 µM in the assay on SK-OV-3 ovarian, 7.02 µM in the assay on SW-620 colon and 3.35 µM in the assay with UACC-62 melanoma.
Turning to `CC/C(=C\c1ccc(N(C)C)cc1)c1ccncc1`, the GI50 in the assay with ACHN renal was 5.87 µM; with HCC-2998 colon, 6.58 µM; in the assay with HCT-116 colon, 3.89 µM; in the assay with HCT-15 colon, 2.82 µM; with LOX IMVI melanoma, 4.05 µM; in the assay on OVCAR-8 ovarian, 6.16 µM. Further, the GI50 in the assay with SF-539 CNS was 7.35 µM; with SK-OV-3 ovarian, 7.87 µM; in the assay on SW-620 colon, 4.04 µM; in the assay on UACC-62 melanoma, 5.04 µM. In addition, the TGI in the assay on ACHN renal, with HCC-2998 colon, with HCT-116 colon, in the assay with HCT-15 colon, in the assay with LOX IMVI melanoma and with OVCAR-8 ovarian was > 100 µM throughout. Also, the TGI in the assay on SF-539 CNS is 74.6 µM; in the assay with SK-OV-3 ovarian, 53.3 µM; in the assay with SW-620 colon, > 100 µM; in the assay with UACC-62 melanoma, > 100 µM.
On to `COc1cnc2c(c1)C(=O)c1c-2n(CCCN2CCNCC2)c(=O)c2cc(F)ccc12`, for which the GI50 in the assay on ACHN renal was 0.0553 µM; with HCC-2998 colon, 1.05 µM; with HCT-116 colon, 0.0919 µM; in the assay on HCT-15 colon, 0.126 µM; in the assay with LOX IMVI melanoma, 0.18 µM; with OVCAR-8 ovarian, 0.126 µM. The GI50 is 0.532 µM with SF-539 CNS, 0.21 µM in the assay with SK-OV-3 ovarian, 0.11 µM in the assay with SW-620 colon and 1.26 µM with UACC-62 melanoma. Besides, the TGI in the assay on ACHN renal was 0.554 µM; in the assay on HCC-2998 colon, 2.56 µM; in the assay on HCT-116 colon it was 1.31 µM; with HCT-15 colon, 1.3 µM; in the assay on LOX IMVI melanoma, 1.32 µM; with OVCAR-8 ovarian, 1.25 µM. Further, the TGI in the assay on SF-539 CNS was 1.83 µM; in the assay on SK-OV-3 ovarian it was 0.916 µM; in the assay on SW-620 colon, 1.46 µM; in the assay with UACC-62 melanoma, 3.02 µM.
Consider `Cc1cc2c(=O)cc(-c3ccncc3)oc2c(C(N)=O)c1C`, for which the TGI in the assay with ACHN renal, in the assay on HCC-2998 colon, in the assay with HCT-116 colon, in the assay with HCT-15 colon, in the assay with LOX IMVI melanoma and in the assay on OVCAR-8 ovarian was > 100 µM throughout. Moreover, the TGI in the assay with SF-539 CNS, with SK-OV-3 ovarian, in the assay on SW-620 colon and with UACC-62 melanoma was > 100 µM each time.
As for `N/C(=N\O)c1cn(C2OC(CO)C(O)C2O)c2ncnc(N)c12` (centres undefined), the GI50 in the assay with ACHN renal was 0.0764 µM; in the assay with HCC-2998 colon, 0.212 µM; with HCT-116 colon, 0.0633 µM; with HCT-15 colon, 0.133 µM; with LOX IMVI melanoma, 0.153 µM; in the assay on OVCAR-8 ovarian, 0.186 µM. For the same compound, the GI50 was 0.255 µM with SF-539 CNS, 0.0884 µM in the assay on SK-OV-3 ovarian, 0.0883 µM with SW-620 colon and 0.141 µM with UACC-62 melanoma. In addition, the TGI in the assay on ACHN renal is > 35.9 µM; in the assay with HCC-2998 colon, 1.43 µM; in the assay on HCT-116 colon, > 100 µM; in the assay on HCT-15 colon, > 47.8 µM; in the assay on LOX IMVI melanoma it was 0.501 µM; in the assay with OVCAR-8 ovarian, 2.59 µM. The TGI with SF-539 CNS worked out at 3.51 µM; in the assay with SK-OV-3 ovarian, 1.76 µM; with UACC-62 melanoma it was 0.366 µM.
Take `Nc1nc(-c2ccccn2)c(-c2ccc3ncccc3n2)s1`: the GI50 in the assay with ACHN renal, in the assay with HCC-2998 colon, in the assay with HCT-116 colon, with HCT-15 colon, in the assay on LOX IMVI melanoma and in the assay with OVCAR-8 ovarian was > 25 µM throughout. Besides, the GI50 with SF-539 CNS, with SK-OV-3 ovarian, in the assay on SW-620 colon and in the assay with UACC-62 melanoma was > 25 µM throughout. In addition, the TGI with ACHN renal, in the assay on HCC-2998 colon, in the assay with HCT-116 colon, with HCT-15 colon, in the assay with LOX IMVI melanoma and with OVCAR-8 ovarian was > 25 µM in each case. Moreover, the TGI in the assay with SF-539 CNS, in the assay with SK-OV-3 ovarian, in the assay with SW-620 colon and in the assay with UACC-62 melanoma was > 25 µM in each case.
As for `CC(C)c1c(C(=O)Nc2ccccc2)c(-c2ccccc2)c(-c2ccc(F)cc2)n1CC[C@@H](O)C[C@@H](O)CC(=O)O`, the GI50 in the assay on ACHN renal was 6.67 µM; in the assay with HCC-2998 colon, 27.4 µM; in the assay with HCT-116 colon, 10.1 µM; in the assay with HCT-15 colon it was 7.69 µM; in the assay with LOX IMVI melanoma, 3.11 µM; in the assay on OVCAR-8 ovarian, 20.4 µM. Further, the GI50 in the assay with SF-539 CNS was 25.6 µM; with SK-OV-3 ovarian, 63.7 µM; in the assay on SW-620 colon, 22.2 µM; in the assay on UACC-62 melanoma, 6.59 µM. In addition, the TGI in the assay on ACHN renal is > 91.2 µM; in the assay on HCC-2998 colon, > 71.5 µM; in the assay on HCT-116 colon it was > 100 µM; in the assay on HCT-15 colon, > 100 µM; in the assay on LOX IMVI melanoma, 22.9 µM; in the assay with OVCAR-8 ovarian, > 100 µM. For the same compound, the TGI with SF-539 CNS was > 100 µM; in the assay with SK-OV-3 ovarian, > 100 µM; in the assay with SW-620 colon, > 100 µM; with UACC-62 melanoma, 51.5 µM.
Consider `N#CSc1c[nH]c2cccc(/C=C/C(=O)/C=C(O)/C=C/c3cccc4[nH]cc(SC#N)c34)c12`, for which the GI50 in the assay on ACHN renal was 0.351 µM; in the assay on HCC-2998 colon it was 1.2 µM; with HCT-116 colon, 0.109 µM; in the assay on HCT-15 colon, 0.186 µM; with LOX IMVI melanoma it was 0.148 µM; in the assay with OVCAR-8 ovarian, 0.369 µM. The GI50 in the assay on SF-539 CNS was 0.559 µM; in the assay on SK-OV-3 ovarian it was 1.32 µM; with SW-620 colon, 0.151 µM; in the assay on UACC-62 melanoma, 0.4 µM. Further, the TGI with ACHN renal was 1.04 µM; in the assay on HCC-2998 colon, 4.56 µM; in the assay on HCT-116 colon, 0.421 µM; in the assay with HCT-15 colon it was 0.895 µM; in the assay on LOX IMVI melanoma, 0.547 µM; in the assay on OVCAR-8 ovarian, > 17.5 µM. Besides, the TGI in the assay on SF-539 CNS came to 1.36 µM; in the assay on SK-OV-3 ovarian, 5.23 µM; in the assay on SW-620 colon, 0.555 µM; in the assay on UACC-62 melanoma, 1.63 µM.
